# From patent US20190298661A1, “Transdermal Delivery of Phenethylamine Monoamine Releasers” (priority 2016, published 2019)
# Read-outs that look alike come from different tables or passages of the source.
# Assays:
# [1] = In vitro skin permeation study, vertical static Franz-type diffusion cells, 24 h; type: in vitro ADME, human; conditions: for average amount permeated across dermatomed human skin: liquid base form; for flux enhancement compared to propylene glycol only group: base 40 mg/mL; for calculated passive flux over 24 hours: base form, 40 mg/ml; for percent permeated through the skin within 24 hours: base; for flux / flux with 10% lauric acid versus propylene glycol alone: base 20 mg/mL
# Experimental: To test this prediction, skin permeation studies were conducted with 4-benzylpiperidine, phenmetrazine, and PAL-353 (3-flouroamphetamine) Based on the required dosing and technical capacity of patch technology, one objective was to develop a 24-hour patch. As such, the skin permeation studies were performed for 24 hours using vertical static Franz-type diffusion cells.
# The recirculating water bath system was maintained at 37° C. to bring the skin surface temperature to 32° C. Each Franz cell comprised of a donor compartment containing the drug and a receiver compartment containing 1×PBS at pH 7.4 to ensure a diffusion gradient, with human dermatomed skin (described below) clamped between the two compartments. Permeation was followed by detection of drug in the receiver compartment using an alliance HPLC Waters 2695 Separations Module attached to a Waters UV detector system. A prodigy 5 u ODS (2) 150×4.60 mm 5 micron column with mobile phase of acetonitrile and water (0.05% TFA) at a flow rate of 1 mL/min and an injection volume 20 μL, with a retention time of 5.5 min, was detected at 259 nm wavelength. The same permeation and HPLC protocol was followed with 6 Franz cells (n=6) for each condition.
# PAL-353 (3-flouroamphetamine) (10 mg/mL in a vehicle suitable for the enhancement technique being used) was placed in the donor compartment of the Franz cell.
# The permeation of phenmetrazine and PAL-353 (3-flouroamphetamine) (3-FA) through dermatomed human cadaver skin was further studied using static Franz diffusion cells. Permeated drugs were quantified using a validated HPLC-UV method. The passive permeation of phenmetrazine and 3-FA was evaluated at the concentrations of 10 (phenmetrazine fumarate), 20 (phenmetrazine and 3-FA bases) and 40 (phenmetrazine and 3-FA bases) mg/mL in propylene glycol (PG). Further, the enhancement effect of oleic acid (5% w/w), oleyl alcohol (5% and 10% w/w) and lauric acid (10% w/w) on the permeation of phenmetrazine and 3-FA bases at 20 and 40 mg/mL was investigated.
# Chemical permeation enhancers belonging to fatty acid or fatty alcohol group, oleic acid, oleyl alcohol and lauric acid were incorporated to improve the permeation rate of phenmetrazine (40 mg/mL) and 3-flouroamphetamine (20 mg/mL).
# Iontophoretic delivery of PAL-353 across dermatomed human skin was also investigated. The donor chamber was filled with 500 μL of PAL-353 solution (10 mg/ml; 54% of saturation solubility) in 10 mM PBS, pH 7.4 containing 25 mM sodium chloride (n=4). The pH of the donor formulation as measured using glass electrode was around 4.0. Anodal iontophoresis was conducted where silver (anode) and silver chloride electrodes (cathode) were placed in the donor chamber and sampling port of the receptor chamber, respectively. It was ensured that there was no contact between the anode and skin in order to avoid skin damage due to high local voltage. The electrodes were then coupled in series to a source of constant current supply (Keithley 2400 Source Meter®, Keithley Instruments Inc., Cleveland, Ohio, USA). A current density of 0.5 mA/cm^2 was applied for 4 h. However, the total duration of the permeation study was 24 h and sampling was done at 0 h, 1 h, 2 h, 3 h, 4 h, 5 h, 6 h, 8 h, 22 h and 24 h.
# This study was repeated keeping all the parameters same except that no current was applied (n=4). This group served as the passive control for comparison of the iontophoretic delivery of PAL-353 across human skin. Also, in a separate study, for these two groups, after 4 h, the formulations were removed and current was stopped in the iontophoresis group. Skin resistance was then measured using the procedure explained in section 2.2.3. Results have been presented as mean±SE.
# Lag time was calculated as the x-intercept of the extrapolated linear portion of the permeation profiles (cumulative drug permeated/cm^2 plotted against the time). […]
# [2] = test system: NET; assay: Release activity of phenethylamine analogs, NET; type: biochemical; conditions: ratio of EC50 values
# [3] = test system: DAT; assay: Release activity of phenethylamine analogs, DAT; type: biochemical; conditions: ratio of EC50 values
# [4] = target: SERT (Rattus norvegicus, UniProt P31652); assay: Release activity of phenethylamine analogs, SERT; type: biochemical
# [5] = test system: EPIDERM; assay: Skin irritation potential of formulations, EPIDERM 3 dimensional model; conditions: two formulations reaching therapeutic flux
# Experimental: The skin irritation potential of our formulations were tested using EPIDERM™, which is a 3 dimensional model used to assess skin irritation.
# [6] = target: DAT (Rattus norvegicus, UniProt P23977); assay: Release activity of phenethylamine analogs, DAT; type: biochemical
# [7] = www.chemspider.com; cited from earlier work
# [8] = 100 mg of 2% HPC gel containing 10 mg of drug, 24 h
# SERT, sequence (P31652 whole entry): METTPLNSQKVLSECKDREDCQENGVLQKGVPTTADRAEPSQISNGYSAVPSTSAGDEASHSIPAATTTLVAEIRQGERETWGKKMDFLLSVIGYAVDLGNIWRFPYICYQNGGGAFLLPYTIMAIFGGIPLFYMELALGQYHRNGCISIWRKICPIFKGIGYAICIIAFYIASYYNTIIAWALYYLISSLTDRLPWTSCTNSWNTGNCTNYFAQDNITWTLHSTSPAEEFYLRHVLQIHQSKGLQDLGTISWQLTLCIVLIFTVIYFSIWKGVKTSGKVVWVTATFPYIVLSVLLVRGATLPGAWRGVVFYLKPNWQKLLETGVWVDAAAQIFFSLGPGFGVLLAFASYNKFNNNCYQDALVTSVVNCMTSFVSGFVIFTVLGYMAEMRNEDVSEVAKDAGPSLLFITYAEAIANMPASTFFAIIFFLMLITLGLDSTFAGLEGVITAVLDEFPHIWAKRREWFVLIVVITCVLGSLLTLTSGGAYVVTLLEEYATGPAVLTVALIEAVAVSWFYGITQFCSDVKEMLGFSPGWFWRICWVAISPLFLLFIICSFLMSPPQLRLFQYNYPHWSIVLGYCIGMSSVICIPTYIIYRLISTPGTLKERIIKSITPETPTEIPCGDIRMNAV
# DAT (Rattus norvegicus, UniProt P23977), sequence (P23977 whole entry): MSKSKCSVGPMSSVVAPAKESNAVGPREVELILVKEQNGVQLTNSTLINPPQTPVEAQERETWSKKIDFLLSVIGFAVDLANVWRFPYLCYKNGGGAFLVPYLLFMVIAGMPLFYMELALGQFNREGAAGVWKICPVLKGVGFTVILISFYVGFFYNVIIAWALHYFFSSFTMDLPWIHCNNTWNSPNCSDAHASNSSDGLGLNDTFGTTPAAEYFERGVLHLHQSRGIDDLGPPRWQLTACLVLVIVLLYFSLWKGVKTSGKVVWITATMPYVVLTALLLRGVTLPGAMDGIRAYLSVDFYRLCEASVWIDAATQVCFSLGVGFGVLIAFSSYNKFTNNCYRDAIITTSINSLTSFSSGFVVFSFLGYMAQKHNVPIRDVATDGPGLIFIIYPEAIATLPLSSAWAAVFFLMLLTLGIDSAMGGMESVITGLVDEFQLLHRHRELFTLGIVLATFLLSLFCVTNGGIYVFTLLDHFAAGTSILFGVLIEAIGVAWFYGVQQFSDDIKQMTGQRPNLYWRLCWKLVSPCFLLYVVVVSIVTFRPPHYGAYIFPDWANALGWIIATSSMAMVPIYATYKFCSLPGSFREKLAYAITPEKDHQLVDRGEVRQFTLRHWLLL
molecule,measurement,setting,value
"c1ccc(CC2CCNCC2)cc1 [4-benzylpiperidine, 4-Benzylpiperidine]",average amount permeated across human dermatomed skin,[1]; [8],1824±425 μg/cm^2
same,share of drug permeated across human dermatomed skin,[1]; [8],about 18%
same,average amount permeated across dermatomed human skin,"[1]; 100 μL of 1 mg/ml in PG, passive, 24 h",33±8 μg/cm^2
same,average amount permeated across dermatomed human skin,"[1]; 100 μL of 10 mg/ml in PG, passive, 24 h",288±71 μg/cm^2
Cc1ccccc1CC(C)N (centres unmarked) [PAL-315],SERT/NET,[2],26.3
same,SERT/DA,[3],7.7
same,EC50,[4],973 nM
Cc1ccc(CC(C)N)cc1 (centres unmarked) [PAL-313],SERT/NET,[2],2.4
same,SERT/DA,[3],1.2
same,EC50,[4],53.4 nM
COc1ccc(CC(C)N)cc1 (centres unmarked) [PAL-162],SERT/NET,[2],0.4
same,SERT/DA,[3],0.1
same,EC50,[4],63.3 nM
CC(N)Cc1ccccc1C(F)(F)F (centres unmarked) [PAL-307],EC50,[4],> 10000 nM
COc1cccc(CC(C)N)c1 (centres unmarked) [PAL-161],SERT/NET,[2],5.7
same,SERT/DA,[3],3.2
same,EC50,[4],328 nM
CC(N)Cc1cccc(C(F)(F)F)c1 (centres unmarked) [PAL-677],SERT/NET,[2],0.6
same,SERT/DA,[3],0.1
same,EC50,[4],104 nM
CCc1cccc(CC(C)N)c1 (centres unmarked) [PAL-1386],SERT/NET,[2],1.4
same,SERT/DA,[3],1.3
same,EC50,[4],160 nM
Phenmetrazine fumarate [reference compound],passive permeation over 24 hours,[1]; 10 mg/mL in propylene glycol,no permeation
CC(N)Cc1ccc(F)cc1 (centres unmarked) [PAL-303],SERT/NET,[2],33.5
same,SERT/DA,[3],18.2
same,EC50,[4],939 nM
Cc1cccc(CC(C)N)c1 (centres unmarked) [PAL-314],SERT/NET,[2],11.9
same,SERT/DA,[3],6.5
same,EC50,[4],218 nM
CC(N)Cc1ccc(Cl)cc1 (centres unmarked) [PAL-24],SERT/NET,[2],0.9
same,SERT/DA,[3],0.3
same,EC50,[4],21.5 nM
CCc1ccc(CC(C)N)cc1 (centres unmarked) [PAL-335],SERT/NET,[2],0.3
same,SERT/DA,[3],0.1
same,EC50,[4],36.1 nM
"CC1NCCOC1c1ccccc1 (centres unmarked) [phenmetrazine, Phenmetrazine, reference compound]",predicted skin irritation of formulations reaching therapeutic flux,[5],irritant
same,flux increase compared to group without enhancer,"[1]; 40 mg/mL, 5% w/w oleyl alcohol in PG",~10 folds
same,efficiency of oleyl alcohol as permeation enhancer over oleic acid,"[1]; 40 mg/mL, both enhancers at 5% w/w",53.4%
same,flux enhancement by oleyl alcohol compared to lauric acid,"[1]; 40 mg/mL, irrespective of oleyl alcohol concentration",~240%
same,flux enhancement compared to propylene glycol only group,[1]; 5% w/w oleic acid in PG,7.6 fold
same,flux enhancement compared to propylene glycol only group,[1]; 10% w/w lauric acid in PG,3.4 fold
same,flux enhancement compared to propylene glycol only group,[1]; 10% w/w oleyl alcohol in PG,~10 fold
same,flux enhancement compared to propylene glycol only group,"[1]; 10% w/w oleyl alcohol in PG, listed as phenmetrazine base",11.4 fold
same,calculated passive flux over 24 hours,[1]; passive,359.05±82.36 μg/cm^2
same,percent permeated through the skin within 24 hours,"[1]; 20 mg/mL in PG, passive",1.86±0.41%
same,percent permeated through the skin within 24 hours,"[1]; 40 mg/mL in PG, passive",5.74±1.32%
"CC(N)Cc1cccc(F)c1 (centres unmarked) [PAL-353, 3-fluoroamphetamine]",predicted skin irritation of formulations reaching therapeutic flux,[5],irritant
same,SERT/NET,[2],120
same,passive permeation over 24 h,"[1]; 10 mg/ml in 10 mM PBS, no current",3.94±0.53 μg/cm^2
same,flux enhancement compared to PG alone,"[1]; 20 mg/mL, 5% w/w oleic acid, not significant",~40%
same,flux as percent of the control group,"[1]; 20 mg/mL, 5% w/w oleyl alcohol in PG",389%
same,flux as percent of the control group,"[1]; 20 mg/mL, 10% w/w oleyl alcohol in PG",370%
same,increase of cumulative drug permeation by iontophoresis versus passive,"[1]; PBS, 24 h period",548 fold
same,enhancement of skin permeation by ablative laser versus passive,"[1]; PG, 24 h",508 times
same,lag time,"[1]; anodal iontophoresis, x-intercept of linear portion of permeation profile",around 3.5 h
same,flux,[1]; 5% oleic acid in PG,109.8±17.94 μg/cm^2/h
same,flux,[1]; 10% oleyl alcohol in PG,292.0±31.70 μg/cm^2/h
same,flux with 10% lauric acid versus propylene glycol alone,"[1]; 10% w/w lauric acid in PG, listed as 3-FA base",did not show significant difference
same,flux with 10% lauric acid versus propylene glycol alone,"[1]; 10% w/w lauric acid in PG, listed as 3-flouroamphetamine",did not impact the flux at all
same,calculated passive flux over 24 hours,[1]; passive,3784.62±173.52 μg/cm^2
same,percent permeated through the skin within 24 hours,"[1]; 20 mg/mL in PG, passive",41.4±1.18%
same,percent permeated through the skin within 24 hours,"[1]; 40 mg/mL in PG, passive",74.45±3.43%
same,enhancement by maltose microneedles versus control,"[1]; hydrochloride in PG, 24 h",7 fold
same,"permeation after 24 h, skin pre-treated with maltose microneedles","[1]; hydrochloride, solution in PG",7.35±4.87 μg/cm^2
same,passive permeation after 24 h,"[1]; hydrochloride, solution in propylene glycol (control)",1.03±0.17 μg/cm^2
same,passive permeation in PBS compared to PG,[1]; passive,approximately four
same,permeation over 24 hours with anodal iontophoresis,"[1]; salt form (hydrochloride), 10 mg/ml in PBS, 0.5 mA/cm^2 for 4 h, 24 h",2159.43±301.14 μg/cm^2
same,permeation after skin microporation by ablative laser,"[1]; solution in PG, P.L.E.A.S.E. laser, 24 h",523.24±86.79 μg/cm^2
same,SERT/DA,[3],80
same,EC50,[4],1940 nM
CC(N)Cc1cccc(Cl)c1 (centres unmarked) [PAL-304],SERT/NET,[2],12.8
same,SERT/DA,[3],10.2
same,EC50,[6],11.8 nM
same,EC50,[4]; read-out: EC50 SERT release,120 nM
C[C@H]1[C@H](c2ccccc2)OCCN1C [phendimetrazine],log P,[7],2.17
CC(N)Cc1ccc(C(C)C)cc1 (centres unmarked) [PAL-334],EC50,[4],79.2 nM
CC(N)Cc1ccc(OC(F)(F)F)cc1 (centres unmarked) [PAL-309],SERT/NET,[2],0.2
same,SERT/DA,[3],0.0
same,EC50,[4],82.2 nM
